The results in this text go back to patent publication US20240391896A1 (Nantong Jutai Biotech Co., Ltd., priority 2021, published 2024).

One test has as its system Human a-SMA. Briefly: Transformation of fibroblasts into myofibroblasts (anti-fibrosis test), a-SMA. Type of test: cell-based. As to conditions: HFL1 cells, 20 ng/ml TGF-β1, 48 hours, qPCR. The protocol:
(§1) (4) Transformation of Fibroblasts into Myofibroblasts (Anti-Fibrosis Test) • I. Main materials
(§2) HFL1 medium: F12K+10% FBS, adherent growth • II. Experimental Setup • 1. Normal group (medium only), model group (induced by 20 ng/ml TGF-β1), test sample group (20 ng/ml TGF-β1+ compound with different final concentration) • 2. 5 compounds, 3 concentration gradients, each gradient 2 repeat wells. • II. Experimental steps • 1. Digesting and counting, 5e^5 cells/well/2 ml, and seeded in 6-well plates. • 2. After adherent, adding TGF-β1 at a final concentration of 20 ng/ml and stimulating for 48 hours. Adding compounds with different final concentrations (0, 5 uM, 20 uM). • 3. Collecting the supernatant, and detecting the amount of col1 and col3 in the supernatant by kit. Lysing the cells with lysate solution, centrifuging, and collecting the supernatant. • 4. Detection of a-SMA and other genes by qPCR ii. Test Results • (1) BCL-9 affinity results are shown in Tables 1.1, 1.2, and 1.3, and the test methods were as described above.

In a further test the test system is Human AXIN2. Put plainly: qPCR of AXIN2 expression in HCT116 cells. The format is cell-based. As to conditions: HCT-116, Table 2, HCT116 cells, AXIN2 vs β-actin, 24 hours. As to the method: Cells were digesting, counting, and plating cells in 24-well plates (flat bottom, clear), with 3×10^5 cells/500 ul DMEM (10% FBS) per well. • 2. Observing the state of cells on the next day, and start dosing after cell attachment is intact
Diluting 514 with DMEM (2% FBS) by gradient dilution with concentrations of 20 μM, 10 μM, 5 μM, 2.5 μM, 1.25 μM, 0.625 μM, 0.3125 μM, 0.15625 μM, 0 μM (equal volume DMSO)
Adding 500 μl of the above different concentrations of 514 to each well, and setting a single well for each concentration gradient except three repeat wells for the 0 μM concentration (double wells for qPCR). • 3. Incubating at 37° C. for 24 hours • 4. Discarding the supernatant, washing once with PBS, and adding trizol at 500/well • 5. RNA extraction (step omitted) • 6. Reverse transcription (step omitted, according to the kit) • 7. qPCR (step omitted, following the kit steps)
• 8. calculation of inhibition rate

Test [1] relates to Human COL1 (collagen type I). Briefly: Transformation of fibroblasts into myofibroblasts (anti-fibrosis test), collagen type I. Type of test: cell-based. As to conditions: HFL1 cells, 20 ng/ml TGF-β1, 48 hours, supernatant. The protocol: as §1, §2
The test system of a further test is collagen type III. Briefly: Transformation of fibroblasts into myofibroblasts (anti-fibrosis test), collagen type III. As to conditions: Homo sapiens, Fibroblast; HFL1 cells, 20 ng/ml TGF-β1, 48 hours, supernatant; read-out: IC50 Human COL1 (collagen type III). Type of test: cell-based. As to the method: as §1, §2
A further test deals with T1, BCL9/β-catenin (Homo sapiens, UniProt P35222).
T1 sequence (P35222 1-781): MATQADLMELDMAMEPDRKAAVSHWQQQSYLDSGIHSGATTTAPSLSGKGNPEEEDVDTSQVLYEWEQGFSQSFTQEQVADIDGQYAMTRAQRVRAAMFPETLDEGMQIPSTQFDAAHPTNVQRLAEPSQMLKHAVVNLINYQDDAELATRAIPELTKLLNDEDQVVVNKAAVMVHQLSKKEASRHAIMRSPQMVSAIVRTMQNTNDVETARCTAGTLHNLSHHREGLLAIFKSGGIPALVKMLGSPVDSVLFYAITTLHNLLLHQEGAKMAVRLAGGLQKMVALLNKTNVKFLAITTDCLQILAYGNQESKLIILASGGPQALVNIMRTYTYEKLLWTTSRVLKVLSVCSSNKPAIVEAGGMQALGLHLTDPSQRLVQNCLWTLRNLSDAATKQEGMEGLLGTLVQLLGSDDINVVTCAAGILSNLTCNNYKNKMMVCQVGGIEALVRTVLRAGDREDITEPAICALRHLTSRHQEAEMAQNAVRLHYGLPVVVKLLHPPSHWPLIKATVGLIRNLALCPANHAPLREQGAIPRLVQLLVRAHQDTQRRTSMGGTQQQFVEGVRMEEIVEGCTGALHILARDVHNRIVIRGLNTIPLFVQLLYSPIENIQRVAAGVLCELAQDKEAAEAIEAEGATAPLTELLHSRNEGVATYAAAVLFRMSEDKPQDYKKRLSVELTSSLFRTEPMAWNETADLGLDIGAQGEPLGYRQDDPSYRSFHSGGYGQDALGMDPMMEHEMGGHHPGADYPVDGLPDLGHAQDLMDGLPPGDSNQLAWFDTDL
Put plainly: FP (BCL-9 avidity) fluorescence polarization competition assay with beta-catenin and FAP-Bcl9 tracer. The format is binding. As to the method:
Incubating for 2 hours on a horizontal shaker. Then adding 2 nM FAP-Bcl9 tracer to each well, and after incubation for 2H on a horizontal shaker, measuring the […].

The subject of a further test is HCT116 cells. Briefly: CCK8 cell viability assay in HCT116 cells. The format is cell-based. The note with it: Homo sapiens, HCT-116; Table 2, HCT116 cells, 24 hours. As to the method: • 1. HCT116 cell plating
Digesting, counting, and plating the cells in 96-well plates (flat bottom, transparent) with 10,000 cells/100 ul DMEM (10% FBS) per well; • 2. Observing the state of cells on the next day, and start dosing after cell attachment is intact; • 3. diluting 514 with DMEM (2% FBS) by gradient dilution with concentrations of 20 μM, 10 μM, 5 μM, 2.5 μM, 1.25 μM, 0.625 μM, 0.3125 μM, 0.15625 μM, 0 μM (equal volume of DMSO); • 4. Adding 100 μl of the above different concentrations of 514 to each well, and making two repeat wells for each concentration gradient; leaving three blank wells (only adding DMEM 2% FBS culture medium without cells). • 5. Culturing at 37° C. for 24 hours; • 6. Adding 10 μl CCK-8 enhanced solution to each well: due to the small amount added of CCK-8 in each well, it may cause errors resulting from the reagent staining on the wall of the well. It is recommended to gently tap the culture plate after adding the reagent to help mixing; • 7. Incubating in the incubator for 0.5-4 hours: the amount of Formazan formed is not the same for different cell types, in most cases, incubation for 1 hour is enough. If the color development is not enough, incubation can be continued to determine optimal conditions. • 8. Measuring the absorbance at 450 nm and 600 nm (excluding the interference of the background color of the reagent and the absorbance value of the well plate itself); • 9. Using OD450 nm-OD600 nm for the final absorbance, and calculating the inhibition rate:
[formula] • As: absorbance of experimental wells (medium containing cells, CCK-8, drug to be tested); • Ac: absorbance of control wells (medium containing cells, CCK-8, and no drug to be tested); • Ab: absorbance of blank wells (medium without cells and drug to be tested, CCK-8). (3) qPCR • 1. HCT116 cell plating

Setting [2] is: Table 2, FP (BCL-9 affinity), read-out: FP.
The mark [3] stands for this setting: Table 1.3, compounds 15-20, read-out: BCL-9 avidity FP IC50.

pIC50: −log10 of the molar value. Like-named read-outs stand apart in the source and are kept apart here.

As for `CC(C)(Oc1cccc(N2CCC[C@@H](C(=O)N(Cc3ccc(-c4cn[nH]c4)cc3)C3CC3)C2)c1Cl)C(=O)N1CCNCC1` [Compound 7, (3R)-1-(2-chloro-3-{[2-methyl-1-oxo-1-(piperazin-1-yl)propan-2-yl]oxy}phenyl)-N-cyclopropyl-N-{[4-(1H-pyrazol-4-yl)phenyl]methyl}piperidine-3-carboxamide], the pIC50 in the test on Human a-SMA was 4.52 to 4.70; with Human AXIN2 it was 5.84; in test [1] it was 4.70 to 5.00; in the test on collagen type III it was 4.70 to 5.00; on BCL9/β-catenin (Table 1.2, compounds 7-16, read-out: BCL-9 avidity FP IC50), 5.50; on BCL9/β-catenin (setting [2]) it was 5.50. Moreover, the pIC50 in the test with HCT116 cells was 5.98.

With `CC(C)(Oc1cccc(N2CCC[C@@H](C(=O)N(Cc3ccc(-c4ccccc4)c(Cl)c3)C3CC3)C2)c1)C(=O)N1CCNCC1` [Compound 14, (3R)-N-[(3-chloro-4-phenylphenyl)methyl]-N-cyclopropyl-1-(3-{[2-methyl-1-oxo-1-(piperazin-1-yl)propan-2-yl]oxy}phenyl)piperidine-3-carboxamide], the pIC50 with Human AXIN2, at BCL9/β-catenin (setting [2]) and in the test on HCT116 cells was 4.30 to 5.00 each time.

For `CC(C)(Nc1cccc(N2CCC[C@@H](C(=O)N(Cc3ccc(-c4cn[nH]c4)cc3)C3CC3)C2)c1)C(=O)N1CCNCC1` [Compound 15, (3R)-N-cyclopropyl-1-(3-{[2-methyl-1-oxo-1-(piperazin-1-yl)propan-2-yl]amino}phenyl)-N-{[4-(1H-pyrazol-4-yl)phenyl]methyl}piperidine-3-carboxamide], the pIC50 with Human AXIN2 is 4.70 to 5.00; on BCL9/β-catenin (setting [3]), 4.70 to 5.00; on BCL9/β-catenin (setting [2]) it was 4.70 to 5.00; with HCT116 cells it was 5.62.

Turning to `CN(c1cccc(N2CCC[C@@H](C(=O)N(Cc3ccc(-c4cn[nH]c4)cc3)C3CC3)C2)c1)C(C)(C)C(=O)N1CCNCC1` [Compound 16, (3R)-N-cyclopropyl-1-(3-{methyl[2-methyl-1-oxo-1-(piperazin-1-yl)propan-2-yl]amino}phenyl)-N-{[4-(1H-pyrazol-4-yl)phenyl]methyl}piperidine-3-carboxamid], the pIC50 was 4.70 to 5.00 in the test with Human AXIN2, 4.70 to 5.00 at BCL9/β-catenin (setting [3]), 4.70 to 5.00 at BCL9/β-catenin (setting [2]) and 5.55 in the test with HCT116 cells.

With `CC(C)(Oc1cccc(N2CCC[C@@H](NC(=O)N(Cc3ccc(-c4cn[nH]c4)cc3)C3CC3)C2)c1)C(=O)N1CCNCC1` [Compound 17, 1-cyclopropyl-3-[(3R)-1-(3-{[2-methyl-1-oxo-1-(piperazin-1-yl)propan-2-yl]oxy}phenyl)piperidin-3-yl]-1-{[4-(1H-pyrazol-4-yl)phenyl]methyl}urea], the pIC50 with Human a-SMA is 5.00 to 5.30; in the test with Human AXIN2, 5.33; in test [1], 4.70 to 5.00; in the test with collagen type III it was 4.52 to 4.70; in the test with HCT116 cells, 5.74.

For the compound `CC(C)(Oc1cccc(N2CCC[C@@H](NC(=O)N(Cc3ccc(-c4cn[nH]c4)cc3)C3CC3)C2)c1)C(=O)NCCN` [Compound 18, N-(2-aminoethyl)-2-{3-[(3R)-3-{[cyclopropyl({[4-(1H-pyrazol-4-yl)phenyl]methyl})carbamoyl]amino}piperidin-1-yl]phenoxy}-2-methylpropanamide], the pIC50 in the test with Human AXIN2 was 5.60; at BCL9/β-catenin (setting [3]), 4.70 to 5.00; at BCL9/β-catenin (setting [2]), 4.70 to 5.00; in the test on HCT116 cells it was 5.46.

In the case of `CC(C)(Oc1cccc(N2CCC[C@@H](NC(=O)N(Cc3ccc(-c4cn[nH]c4)cc3)C3CC3)C2)c1)C(=O)NCCCN` [Compound 19, N-(3-aminopropyl)-2-{3-[(3R)-3-{[cyclopropyl({[4-(1H-pyrazol-4-yl)phenyl]methyl})carbamoyl]amino}piperidin-1-yl]phenoxy}-2-methylpropanamide], the pIC50 in the test on Human a-SMA was 4.70 to 5.30; in the test on Human AXIN2, 5.21; in test [1], 5.23; in the test with collagen type III, 4.70 to 5.30; in the test on HCT116 cells, 5.49.
